Laboratory results reported in US11833162B2, “Macrocyclic derivatives, process for preparing same and pharmaceutical compositions containing same” (LES LABORATOIRES SERVIER, priority 2017, dated 2023).
Where a name gives a salt, the structure may show the parent alone.

Experiments:
[1] = target: Bcl-2 protein (histag-Bcl-2, UniProtKB P10415) (Homo sapiens, UniProt P10415); test: Inhibition of Bcl-2 by the fluorescence polarisation technique; type: binding; settings: fluorescence polarisation, 2 hours incubation; read-out: IC50 (μM) Bcl-2 FP
Sequence of Bcl-2 protein (P10415 whole entry): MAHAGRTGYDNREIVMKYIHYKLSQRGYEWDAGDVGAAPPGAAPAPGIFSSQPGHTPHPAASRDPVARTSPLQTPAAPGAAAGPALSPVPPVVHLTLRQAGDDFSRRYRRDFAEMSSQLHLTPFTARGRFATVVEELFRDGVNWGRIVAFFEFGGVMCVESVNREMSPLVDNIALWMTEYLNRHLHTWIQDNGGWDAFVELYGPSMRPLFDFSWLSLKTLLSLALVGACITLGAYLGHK
Protocol: The fluorescence polarisation tests were carried out on microplates (384 wells). The Bcl-2 protein, labelled (histag-Bcl-2 such that Bcl-2 corresponds to the UniProtKB® primary accession number: P10415), at a final concentration of 5×10^−9M, is mixed with a fluorescent peptide (Fluorescein-REIGAQLRRMADDLNAQY), at a final concentration of 1.00×10^−9M in a buffer solution (Hepes 10 mM, NaCl 150 mM, Tween20 0.05%, pH 7.4), in the presence or absence of increasing concentrations of test compounds. After incubation for 2 hours, the fluorescence polarisation is measured.

[2] = tested on: RS4; 11 leukaemia tumour line; test: In vitro cytotoxicity, Microculture Tetrazolium Assay (MTT); type: cell-based; settings: 11 cells, 48 hours exposure
Protocol: The cytotoxicity studies were carried out on the RS4; 11 leukaemia tumour line.
The cells are distributed onto microplates and exposed to the test compounds for 48 hours.
The cell viability is then quantified by a colorimetric assay, the Microculture Tetrazolium Assay (Cancer Res., 1987, 47, 939-942).

Structure (SMILES)	IC50 [1]	IC50 [2]	IC50 ([2]; Homo sapiens, RS4-11, 48 h)
Cc1c2cc(n1C)-c1cc(Cl)ccc1C(=O)N1Cc3cccc(c3CC1C)OCCCc1c(cc(C#N)n1C)N(c1ccc(O)cc1)C2=O (single isomer, unassigned) [Example 25, (16R or S)-11-Chloro-4-(4-hydroxyphenyl)-1,7,8,16-tetramethyl-5,14-dioxo-4,5,8,16,17,23,24,25-octahydro-1H,14H-15,18-methano-6,9-(metheno)dibenzo[b,h]-pyrrolo[3,2-p][1,6,11,15]oxatriazacycloicosine-2-carbonitrile]	0.268 µM	809 nM	–
Cc1c2cc(n1C)-c1cc(Cl)ccc1C(=O)N1Cc3cccc(c3CC1C)OCCCc1c(cc(C#N)n1C)N(c1ccc(O)cc1)C2=O (single isomer, unassigned) [Example 26, (16S or R)-11-Chloro-4-(4-hydroxyphenyl)-1,7,8,16-tetramethyl-5,14-dioxo-4,5,8,16,17,23,24,25-octahydro-1H,14H-15,18-methano-6,9-(metheno)-dibenzo[b,h]pyrrolo[3,2-p][1,6,11,15]oxatriazacycloicosine-2-carbonitrile]	0.0041 µM	1.66 nM	–
Cc1c2cc(n1C)-c1cc(Cl)ccc1C(=O)N1CCc3c(cccc3OCCOc3cccc(c3)N(c3ccc(O)cc3)C2=O)C1 [Example 1, 6-Chloro-14-(4-hydroxyphenyl)-10,11-dimethyl-20,23-dioxa-1,10,14-triazahexacyclo[26.3.1.1˜9,12˜.1˜15,19−.0˜3,8˜.0˜24.29˜]tetratriaconta-3,5,7,9(34),11,15(3.3),16,18,24,26,28-undecaene-2,13-dione]	0.0067 µM	–	107 nM
Cc1c2cc(n1C)-c1cc(Cl)ccc1C(=O)N1CCc3c(cccc3OCCCOc3cccc(c3)N(c3ccc(O)cc3)C2=O)C1 [Example 2, 6-Chloro-14-(4-hydroxyphenyl)-10,11-dimethyl-20,24-dioxa-1,10,14-triazahexacyclo[27.3.1.1˜9,12˜.1˜15,19˜.0˜3,8˜.0˜25,30˜]pentatriaconta-3,5,7,9(35),11,15(34),16,18,25,27,29-undecaene-2,13-dione]	0.0044 µM	–	179 nM
Cc1c2cc(n1C)-c1cc(Cl)ccc1C(=O)N1CCc3c(cccc3OCCCCOc3cccc(c3)N(c3ccc(O)cc3)C2=O)C1 [Example 3, 6-Chloro-14-(4-hydroxyphenyl)-10,11-dimethyl-20,25-dioxa-1,10,14-triazahexacyclo[28.3.1.1˜9,12˜.1˜15,19˜.0˜3,8˜.0˜26,31˜]hexatriaconta-3,5,7,9(36),11,15(35),16,18,26,28,30-undecaene-L 3-dione]	0.0655 µM	–	749 nM
Cc1c2cc(n1C)-c1cc(Cl)ccc1C(=O)N1CCc3c(cccc3OCCOc3cc(C#N)cc(c3)N(c3ccc(O)cc3)C2=O)C1 [Example 4, 6-Chloro-14-(4-hydroxyphenyl)-10,11-dimethyl-2,13-dioxo-20,23-dioxa-1,10,14-triazahexacyclo[26.3.1.1˜9,12˜.1˜5,19˜.0˜3,8˜.0˜24.29˜]tetratriaconta-3,5,7,9(34),11,15(33),16,18,24,26,28-undecaene-17-carbonitrile]	0.0023 µM	–	7.73 nM
Cc1c2cc(n1C)-c1cc(Cl)ccc1C(=O)N1CCc3c(cccc3OCCCOc3cc(C#N)cc(c3)N(c3ccc(O)cc3)C2=O)C1 [Example 5, 6-Chloro-14-(4-hydroxyphenyl)-10,11-dimethyl-2,13-dioxo-20,24-dioxa-1,10,14-triazahexacyclo[27.3.1.1˜9,12˜.1˜15,19˜.0˜3,8˜.0˜25,30˜]pentatriaconta-3,5,7,9(35),11,15(34),16,18,25,27,29-undecaene-17-carbonitrile]	0.00205 µM	–	21.4 nM
Cc1c2cc(n1C)-c1cc(Cl)ccc1C(=O)N1CCc3c(cccc3OCCCCn3c(C#N)cc(c3C)N(c3ccc(O)cc3)C2=O)C1 [Example 7, 6-Chloro-14-(4-hydroxyphenyl)-10,11,33-trimethyl-2,13-dioxo-23-oxa-1,10,14,18-tetraazahexacyclo[26.3.1.1˜9,12˜.1˜15,18˜.0˜3,8˜.0˜24,29˜]tetratriaconta-3,5,7,9(34),11,15(33),16,24,26,28-decaene-17-carbonitrile]	0.003 µM	–	4.94 nM
Cc1c2cc(n1C)-c1cc(Cl)ccc1C(=O)N1CCc3c(cccc3OCCCn3c(C#N)cc(c3C)N(c3ccc(O)cc3)C2=O)C1 [Example 8, 6-Chloro-14-(4-hydroxyphenyl)-10,11,32-trimethyl-2,13-dioxo-22-oxa-1,10,14,18-tetraazahexacyclo[25.3.1.1˜9,12˜.1˜15,18˜.0˜3,8˜.0˜23,28˜]tritriaconta-3,5,7,9(33),11,15(32),16,23,25,27-decaene-17-carbonitrile]	0.00615 µM	–	49.3 nM
Cc1c2cc(n1C)-c1cc(Cl)ccc1C(=O)N1CCc3c(cccc3OCCCc3cc(C#N)cc(c3)N(c3ccc(O)cc3)C2=O)C1 [Example 9, 6-Chloro-14-(4-hydroxyphenyl)-10,11-dimethyl-2,13-dioxo-23-oxa-1,10,14-triazahexacyclo[26.3.1.1˜9,12˜.1˜15,19˜.0˜3,8˜.0˜24,29˜]tetratriaconta-3,5,7,9(34),11.15 (33),16,18,24,26,28-undecaene-17-carbonitrile]	0.0023 µM	–	5.24 nM
Cc1c2cc(n1C)-c1cc(Cl)ccc1CN1CCc3c(cccc3OCCc3c(cnn3C)N(c3ccc(O)cc3)C2=O)C1 [Example 10, 11-Chloro-4-(4-hydroxyphenyl)-1,7,8-trimethyl-1,4,16,17,23,24-hexahydro-14H-15,18-methano-6,9-(metheno)dibenzo[l,r]pyrazolo[3,4-d]-[1,6,10,15]oxatriazacyclononadecin-5(8H)-one hydrochloride]	0.299 µM	–	> 300 nM
Cc1c2cc(n1C)-c1cc(Cl)ccc1CN1CCc3c(cccc3OCCCc3c(cnn3C)N(c3ccc(O)cc3)C2=O)C1 [Example 11, 11-Chloro-4-(4-hydroxyphenyl)-1,7,8-trimethyl-4,16,17,23,24,25-hexahydro-1H,14H-15,18-methano-6,9-(metheno)dibenzo[b,h]pyrazolo[4,3-p]-[1,6,11,15]oxatriazacycloicosin-5(8H)-one]	0.157 µM	–	448 nM
Cc1c2cc(n1C)-c1cc(Cl)ccc1C(=O)N1Cc3ccccc3C(COc3ccc(C#N)cc3N(c3ccc(O)cc3)C2=O)C1 (centres unmarked) [Example 13, 12-Chloro-5-(4-hydroxyphenyl)-8,9-dimethyl-6,15-dioxo-6,9,22,23-tetrahydro-5H,15H,17H-16,22-methano-7,10-(metheno)tribenzo[b,j,o][1,4,8,13]oxa-triazacyclooctadecine-3-carbonitrile]	0.0332 µM	–	239 nM
Cc1c2cc(n1C)-c1cc(Cl)ccc1C(=O)N1CCc3c(cccc3C1)CCCOc1cc(C#N)cc(c1)N(c1ccc(O)cc1)C2=O [Example 14, 6-Chloro-14-(4-hydroxyphenyl)-10,11-dimethyl-2,13-dioxo-20-oxa-1,10,14-triazahexacyclo[26.3.1.1˜9,12˜.1˜15,19˜.0˜3,8˜.0˜24,29˜]tetratriaconta-3,5,7,9(34),11,15(33),16,18,24,26,28-undecaene-17-carbonitrile]	0.0147 µM	–	14.6 nM
Cc1c2cc(n1C)-c1cc(Cl)ccc1C(=O)N1CCc3c(cccc3OCCCCn3cc(cn3)N(c3ccc(O)cc3)C2=O)C1 [Example 15, Chloro-14-(4-hydroxyphenyl)-10,11-dim ethyl-23-oxa-1,10,14,17,18-pentaazahexacyclo[26.3.1.1˜9,12˜.1˜15,18˜.0˜3,8˜.0˜24,29˜]tetratriaconta-3,5,7, 9(34),11,15(33),16,24,26,28-deca ene-2,13-dione]	0.0037 µM	–	11.6 nM
Cc1c2cc(n1C)-c1cc(Cl)ccc1C(=O)N1Cc3cccc(c3CC1CN1CCOCC1)OCCCc1c(cnn1C)N(c1ccc(O)cc1)C2=O (centres unmarked) [Example 17, 11-Chloro-4-(4-hydroxyphenyl)-1,7,8-trimethyl-16-(morpholin-4-ylmethyl)-4,16,17,23,24,25-hexahydro-1H,14H-15,18-methano-6,9-(metheno)dibenzo-[b,h]pyrazolo[4,3-p][1,6,11,15]oxatriazacycloicosine-5,14(8H)-dione]	0.0123 µM	–	62.8 nM
Cc1c2cc(n1C)-c1cc(Cl)ccc1C(=O)N1CCc3c(cccc3OCCc3c(cc(C#N)n3C)N(c3ccc(O)cc3)C2=O)C1 [Example 19, 11-Chloro-4-(4-hydroxyphenyl)-1,7,8-trimethyl-5,14-dioxo-1,4,5,8,16,17,23,24-octahydro-14H-15,18-methano-6,9-(metheno)dibenzo[l,r]pyrrolo-[2,3-d][1,6,10,15]oxatriazacyclononadecine-2-carbonitrile]	0.0055 µM	–	10.3 nM
Cc1c2cc(n1C)-c1cc(F)ccc1C(=O)N1CCc3c(cccc3OCCc3c(cnn3C)N(c3ccc(O)cc3)C2=O)C1 [Example 20, 11-Fluoro-4-(4-hydroxyphenyl)-1,8-trimethyl-1,4,16,17,23,24-hexahydro-14H-15,18-methano-6,9-(metheno)dibenzo[l,r]pyrazolo[3,4-d][1,6,10,15]oxatriazacyclo-nonadecine-5,14(8H)-dione]	0.0123 µM	–	81.2 nM
Cc1c2cc(n1C)-c1cc(Cl)ccc1C(=O)N1CCc3c(cccc3OCCOc3c(cnn3C)N(c3ccc(O)cc3)C2=O)C1 [Example 21, 11-Chloro-4-(4-hydroxyphenyl)-1,7,8-trimethyl-1,4,16,17,23,24-hexahydro-14H-15,18-methano-6,9-(metheno)dibenzo[m,s]pyrazolo[3,4-e][1,4,7,11,16]dioxa-triazacycloeicosin-5,14(8H)-dione]	0.0148 µM	–	131 nM
